“Also recorded” adds a separate entry of the source.
Assays:
Gammarus pulex = assay: in vivo; details: exposure 1 μg L^−1
Method: (§1) Individual adult organisms (n = 25), both male and female (>5 mg wet weight) were placed in Pyrex glass beakers. G. pulex were carefully transferred to beakers using blunt forceps to avoid any harm to the organisms before exposure. Each beaker contained 25 organisms in 200 mL of exposure media (AFW and test compound). […] All exposure media contained <0.001% of organic solvent (methanol). A total of 300 organisms were used per compound exposure and were sampled for n = 3 per time-point. […] These were subsequently analysed for background contamination. […] Each animal specimen was rinsed with ultra-pure water and then frozen at −20 °C.
(§2) Water samples collected from exposure experiments were filtered using Whatman filters (0.2 μM) and directly injected onto the LC-MS/MS for analysis. For G. pulex, A mass of 50 mg of lyophilised and ground material was extracted by glass bead pulverisation in 5 mL of acetonitrile and diluted with 100 mL of ammonium acetate buffer (10 mM) for loading onto Waters HLB solid phase extraction (SPE) cartridges (6 cc, 200 mg sorbent).
Briefly, separations were performed on an Agilent HP1100 LC system configured with a Waters SunFire reversed-phase C18 column (150 mm × 2.1 mm, 2.5 μM particle size). […] Detection was performed using a Waters Quattro triple quadrupole mass spectrometer with electrospray ionisation operated in positive and negative polarity switching mode. Quantification of analytes was performed using 3-point internal standard matrix-matched calibration using the peak area ratio of non-labelled analyte (precursor range: 50–300 ng g^−1, biotransformation product range: 50–150 ng g^−1) to the stable isotope labelled internal standard (SIL-IS) (100 ng g^−1).
Herein, the authors define BCFtotal as the summation of the BCF of both parent/precursor and biotransformation products (i.e. the total body burden). Whereas, BCFparent will be used to describe the BCF determined for the parent compound alone.

[1] = Method: as §1, §2
sturgeons = system: sturgeons; parameters: method as in Hou et al., 2003; details: ref Hou et al., 2003; cited from earlier work

Cc1cc(C)nc(NS(=O)(=O)c2ccc(N)cc2)n1 [Sulfamethazine, sulfamethazine]
detection of parent compound in G. pulex samples (Gammarus pulex): not detected in any sample; also recorded: no peaks were detected
stability of aqueous pharmaceutical concentration ([1]; across the exposure period): remained stable
Concentration, 24 h ([1]; exposure media after 24 h of exposure with Day 1 solution, n = 3): 0.99 ng/mL
Concentration, 48 h ([1]; exposure media after 24 h of exposure with Day 2 solution, n = 3 (propranolol n = 2)): 0.71 ng/mL
Concentration, Day 2 (initial pharmaceutical concentration on day 2) ([1]; exposure media, n = 2): 0.89 ng/mL
Concentration, Day 1 (initial pharmaceutical concentration on day 1) ([1]; exposure media, n = 3, nominal 1 μg L^−1 (propranolol 10 μg L^−1)): 1.06 ng/mL
BCF in sturgeons (sturgeons): 1 L/kg
